Reference: paper PMC7830115, “Design, Synthesis, Molecular Docking, and Tumor Resistance Reversal Activity Evaluation of Matrine Derivative with Thiophene Structure” (Molecules, 2021)

Columns and labels:
CNE2 = experiment: MTT cytotoxicity assay, CNE2; type: cell-based; settings: mean ± SD
Procedure: (§1) Prior to determining the combined inhibitory effects against NPC CDDP-resistance cells, the cytotoxicity effects of these 8 derivatives were evaluated against three NPC cell lines (CNE2, HONE1, and HK-1) and CDDP resistance cell line (CNE2/CDDP) by using MTT (3-(4,5-dimethyl-2-thiazolyl)-2,5-diphenyl-2-H-tetrazolium bromide) assays. […] Moreover, a liver normal cell LO2 was involved to evaluate the selectivity of these 8 compounds by using MTT assays.
(§2) Nasopharyngeal carcinoma cells (CNE2, HONE1, and CNE2/CDDP) were purchased from Shanghai Aulu Biological Technologh Co., Ltd. (Shanghai, China). HK-1 cell was purchased from Shanghai Shunran Biological Technologh Co., Ltd. CNE2, HONE1, and HK-1 were cultured in DMEM medium supplemented with 10% fetal bovine serum, 1% penicillin-streptomycin. CDDP-resistant NPC cell CNE2/CDDP was cultured in DMEM medium supplemented with CDDP to sustain its drug resistance. Cell viability was detected using the MTT assay. All the 8 derivatives were resolved with DMSO to make a storage solution at 1 M, and CDDP was resolved with phosphate buffer saline (PBS) to make a storage solution at 100 mM. The maximum concentrations of these 8 derivatives and CDDP used in MTT assays were set as 1 mM and 100 µM diluted with DMEM medium, respectively. Medium with 0.1% DMSO was set as control. To begin, an initial MTT assay was conducted to evaluate the cytotoxicity of 3a~3h with a dose range of 50, 100, 200, 400, and 800 µM. Then, a more precise dose range was set to calculate the IC50 of each compound (For 3a~3e: 50, 100, 200, 400, 600, and 800 µM; for 3f~3h: 12.5, 25, 50, 100, 200, and 400 µM). Then, 5000 cells were seeded in a 96-well plate for each well and treated with respective compounds at different concentrations for 72 h following additional treatment with MTT for 2~3 h. Then, MTT was removed and 150 µL DMSO was added into each well and the absorption values were measured at 490 nm using a SpectraMAX M5plate reader (Silicon Valley, CA, USA).

HONE1 = experiment: MTT cytotoxicity assay, HONE1; type: cell-based; settings: mean ± SD
Procedure: as §1, §2

HK-1 = experiment: MTT cytotoxicity assay, HK-1; type: cell-based; settings: mean ± SD
Procedure: as §1, §2

CNE2/CDDP = experiment: MTT cytotoxicity assay, CNE2/CDDP; type: cell-based; settings: cisplatin resistant cell line, mean ± SD
Procedure: as §1, §2

LO2 = experiment: MTT cytotoxicity assay, LO2 normal liver cell; type: cell-based; settings: mean ± SD
Procedure: as §1, §2

[1] = tested on: NPC cell lines (CNE2, HONE1, and HK-1) and CDDP resistance cell line (CNE2/CDDP); experiment: MTT cytotoxicity, summary over NPC cell lines and CDDP resistance cell line; type: cell-based; settings: range over CNE2, HONE1, HK-1 and CNE2/CDDP, read-out: IC50, anti-proliferative effects
Procedure: as §1
Nasopharyngeal carcinoma cells (CNE2, HONE1, and CNE2/CDDP) were purchased from Shanghai Aulu Biological Technologh Co., Ltd. (Shanghai, China). HK-1 cell was purchased from Shanghai Shunran Biological Technologh Co., Ltd. CNE2, HONE1, and HK-1 were cultured in DMEM medium supplemented with 10% fetal bovine serum, 1% penicillin-streptomycin. CDDP-resistant NPC cell CNE2/CDDP was cultured in DMEM medium supplemented with CDDP to sustain its drug resistance. Cell viability was detected using the MTT assay. All the 8 derivatives were resolved with DMSO to make a storage solution at 1 M, and CDDP was resolved with phosphate buffer saline (PBS) to make a storage solution at 100 mM. […] Then, MTT was removed and 150 µL DMSO was added into each well and the absorption values were measured at 490 nm using a SpectraMAX M5plate reader (Silicon Valley, CA, USA).

[2] = tested on: leukemia, breast, and bladder cancer cells; settings: cited from earlier work
CNE2/CDDP cells = experiment: Apoptosis assay (Annexin V-FITC/PI, FACS); type: cell-based; settings: CDDP 4 µg/mL or 3f 40 µM alone, 24 h, three independent experiments, mean ± SD
Procedure: Subsequently, to further verify whether the synergistic effects of compound 3f with CDDP involved cell death, an apoptosis assay was conducted. CNE2/CDDP cells were co-treated with CDDP and compound 3f, or CDDP and 3f alone for 24 h. Then, cells were harvested for staining by using an apoptosis kit, following FACS detection (Figure 3a). Then, the data from three independent experiments were analyzed and the results were shown in the form of histogram (Figure 3b).
CNE2/CDDP cells (3 × 10^5) were seeded into a 6-well plate for each well. Twenty-four hours later, medium was removed and cells were treated with different compounds for […]. Then, cells were harvested, washed with cold PBS, and stained with Annexin V-FITC and PI for 15 min in dark. Finally, samples were analyzed by flow cytometer.
Figure 3 Compound 3f (40 µM) increased apoptosis rate of CDDP (4 µg/mL) in CNE2/CDDP cells. (a), representative apoptosis detection by FACS. (b), three independent experiments of apoptosis assays were analyzed and p-value was calculated. Data are represented as mean ± SD. Bar means SD value * p < 0.05, compared with CDDP; # p < 0.05, compared with 3f.

Compound: S=C1/C(=C/c2ccc(Br)s2)CC[C@@H]2[C@H]3CCCN4CCC[C@@H](CN12)[C@@H]34 [3h, 14-((5-bromothiophen-2-yl)methylene)thiomatrine]
- IC50 (CNE2; Homo sapiens, CNE-2, 72 h): 76.2 ± 4.5 µM
- IC50 (HONE1; Homo sapiens, HONE1, 72 h): 89.7 ± 6.2 µM
- IC50 (HK-1; HK-1, 72 h): 103 ± 7.8 µM
- IC50 (CNE2/CDDP; Homo sapiens, CNE-2, 72 h): 178 ± 15.8 µM
- IC50 (LO2; Homo sapiens, L02, 72 h): 92 ± 8.6 µM
- melting point: 239.9 to 240.6 °C

Compound: O=C1CCC[C@@H]2[C@H]3CCCN4CCC[C@@H](CN12)[C@@H]34 [Matrine]
- IC50 (CNE2; Homo sapiens, CNE-2, 72 h): > 1000 µM
- IC50 (HONE1; Homo sapiens, HONE1, 72 h): > 1000 µM
- IC50 (HK-1; HK-1, 72 h): > 1000 µM
- IC50 (CNE2/CDDP; Homo sapiens, CNE-2, 72 h): > 1000 µM
- IC50 (LO2; Homo sapiens, L02, 72 h): > 1000 µM
- IC50 [1]: > 1000 µM
- dosage reversing drug resistance in vitro [2]: more than 1 mM

Compound: [NH2][Pt]([NH2])([Cl])[Cl] [CDDP, Cisplatin, reference compound]
- IC50 (CNE2; 72 h): 3.77 ± 0.26 µM
- IC50 (HONE1; 72 h): 5.23 ± 0.37 µM
- IC50 (HK-1; 72 h): 6.73 ± 0.42 µM
- IC50 (CNE2/CDDP; 72 h): 29.5 ± 3.12 µM
- IC50 (LO2; 72 h): 6.33 ± 0.56 µM
- cell apoptosis, treatment alone (CNE2/CDDP cells): 7.58 ± 0.82

Compound: S=C1/C(=C/c2cc(Br)cs2)CC[C@@H]2[C@H]3CCCN4CCC[C@@H](CN12)[C@@H]34 [3g, 14-((4-bromothiophen-2-yl)methylene)thiomatrine]
- IC50 (CNE2; Homo sapiens, CNE-2, 72 h): 58.3 ± 2.9 µM
- IC50 (HONE1; Homo sapiens, HONE1, 72 h): 71.5 ± 4.2 µM
- IC50 (HK-1; HK-1, 72 h): 90.7 ± 6.6 µM
- IC50 (CNE2/CDDP; Homo sapiens, CNE-2, 72 h): 206 ± 11.7 µM
- IC50 (LO2; Homo sapiens, L02, 72 h): 68 ± 5.1 µM
- melting point: 245.7 to 246.3 °C

Compound: Cc1ccsc1/C=C1\CC[C@@H]2[C@H]3CCCN4CCC[C@@H](CN2C1=S)[C@@H]34 [3e, 14-((3-methylthiophen-2-yl)methylene)thiomatrine]
- IC50 (CNE2; Homo sapiens, CNE-2, 72 h): 148 ± 5.6 µM
- IC50 (HONE1; Homo sapiens, HONE1, 72 h): 185 ± 12.4 µM
- IC50 (HK-1; HK-1, 72 h): 180 ± 7.3 µM
- IC50 (CNE2/CDDP; Homo sapiens, CNE-2, 72 h): 452 ± 26.8 µM
- IC50 (LO2; Homo sapiens, L02, 72 h): 243 ± 12.7 µM
- melting point: 193.6 to 195 °C
